The source of these data is article PMC8759985 (Computational and Structural Biotechnology Journal, 2021).

Structures are written as SMILES.

In the assay the target is T1, TRMT2A RRM (Homo sapiens, UniProt Q8IZ69).
T1 sequence (Q8IZ69 69-147): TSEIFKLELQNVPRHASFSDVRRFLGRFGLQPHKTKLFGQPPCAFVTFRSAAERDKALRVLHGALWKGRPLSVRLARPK
In words: SPR. Format: binding.

`NCCCNCCCCNCCCN` [spermine] displayed a dissociation constant (Kd) of 1300 ± 270 nM.
